Assay results as given in publication PMC7450057, “Enhancing intracellular accumulation and target engagement of PROTACs with reversible covalent chemistry” (Nature Communications, 2020).
“And” between values parts separate entries of the source, which are not always exact repeats. Identical values can stand only once.

Tests used:
MOLM-14 cells = assay: Quantification of intracellular drug concentration by LC-MS; assay type: in vitro ADME; details: for Intracellular concentration: Concentration of compound, AVE / intracellular amount, AVE / intracellular amount / Intracellular concentration: Concentration of compound: 200 nM; for Intracellular concentration: Concentration of compound, AVE / intracellular amount, AVE: average of 3 replicates; for intracellular amount: initial amount 0.4000 nmol; for Intracellular concentration: Concentration of compound: sample volume 400 µL
Protocol: MOLM-14 cells were seeded at a density of 0.5 × 10^6 per mL in 2 mL medium. […] The samples were immediately centrifuged at 12,000 × g for 15 min at 4 °C, then removing the supernatant. In all, 400 μL of NP-40 lysis buffer was added to the cell pellet and mixed thoroughly. The mixtures were rocked for 1 h at 4 °C and centrifuged at 12,000 × g for 15 min at 4 °C. Then the supernatant was transferred to new EP tubes. In total, 20 µL supernatant was extracted with 180 µL of acetonitrile (containing internal standard: 250 nM of RNC-Ctrl) and centrifuged at the same conditions described above. Take 75 μL of supernatant for liquid chromatography-mass spectrometry analysis.
The mass spectrometer was operated in positive SIM ion mode (fragmentor 120 V; cycle time 0.6 s/cycle; Agilent Technologies 6130 Quadrupole LC/MS).

BTK = BTK (Mus musculus, UniProt P35991); assay: BTK degradation in mouse B-cell lymphoma cell line derived from Eu-Myc mice; assay type: cell-based; design: endogenous in cells; host or cells: B cell lymphoma cell line derived from Eu-Myc mice; details: Supplementary Figure 10, replicates, DMSO about 100
Protocol: MOLM-14 cell line was obtained from Dr. Conneely at Baylor College of Medicine, and the Mino cells were purchased from the American Type Culture Collection (ATCC, Cat. No. CRL-3000). Both cell lines were cultured in RPMI 1640 medium (Thermo Fisher Scientific, Cat. No. MT10040CV) supplemented with 10% fetal bovine serum (GE Healthcare, Cat. No. SH30071.03) and 1% Pen/Strep (Thermo Fisher Scientific, Cat. No. 15140163). The wild-type and C481S BTK XLA cell lines were gifts from Dr. Woyach at The Ohio State University and were cultured in RPMI 1640 medium with 15% fetal bovine serum, 1% Pen/Strep, and 1.0 µg/ml puromycin (Thermo Fisher Scientific, Cat. No. A1113803). HEK 293T/17 cells were purchased from ATCC (Cat. No. CRL-11268) were maintained in DMEM (Thermo Fisher Scientific, Cat. No. MT10013CV) with 10% fetal bovine serum and 1% Pen-Strep. The B cell lymphoma cell line derived from Eu-Myc mice was a gift from Dr. Yulin Li at Houston Methodist Research Institute and cultured in RPMI 1640 medium supplemented with 15% (v/v) fetal bovine serum (FBS), 100 U/mL penicillin, 100 μg/mL streptomycin, and 0.05 mM beta-mercaptoethanol and puromycin (1 μg/mL). Cells were grown at 37 °C with 5% CO2.
The collected cells and spleen tissues were lysed in RIPA lysis buffer (50 mM Tris-HCl, pH 7.4, 150 mM NaCl, 1% NP-40, 0.5% sodium deoxycholate, 0.1% SDS) supplemented with Halt™ Protease and Phosphatase Inhibitor Cocktail (Thermo Fisher Scientific, Cat. No. PI78440) immediately before use. Lysates were centrifuged at 15,000 × g for 10 min at 4 °C and the supernatant was quantified for total protein concentration using the Pierce BCA Protein Assay (Thermo Fisher Scientific, Cat. No. 23225). Thirty micrograms of protein were loaded onto sodium dodecyl sulfate−polyacrylamide gel for electrophoresis (Bio-Rad) and transferred onto PVDF membranes (Millipore, Cat. No. IPVH00010). […] Imaging was performed using the ECL Prime chemiluminescent western blot detection reagents (GE Healthcare, Cat. No. RPN2232) by visualization of the blots to X-Ray film or with an Imager (Kindle Biosciences, Cat. No. D1001). All western blots were subsequently processed and quantified with Imager software. Protein level was normalized to β-actin or GAPDH loading controls.

BTK, sequence (P35991 whole entry): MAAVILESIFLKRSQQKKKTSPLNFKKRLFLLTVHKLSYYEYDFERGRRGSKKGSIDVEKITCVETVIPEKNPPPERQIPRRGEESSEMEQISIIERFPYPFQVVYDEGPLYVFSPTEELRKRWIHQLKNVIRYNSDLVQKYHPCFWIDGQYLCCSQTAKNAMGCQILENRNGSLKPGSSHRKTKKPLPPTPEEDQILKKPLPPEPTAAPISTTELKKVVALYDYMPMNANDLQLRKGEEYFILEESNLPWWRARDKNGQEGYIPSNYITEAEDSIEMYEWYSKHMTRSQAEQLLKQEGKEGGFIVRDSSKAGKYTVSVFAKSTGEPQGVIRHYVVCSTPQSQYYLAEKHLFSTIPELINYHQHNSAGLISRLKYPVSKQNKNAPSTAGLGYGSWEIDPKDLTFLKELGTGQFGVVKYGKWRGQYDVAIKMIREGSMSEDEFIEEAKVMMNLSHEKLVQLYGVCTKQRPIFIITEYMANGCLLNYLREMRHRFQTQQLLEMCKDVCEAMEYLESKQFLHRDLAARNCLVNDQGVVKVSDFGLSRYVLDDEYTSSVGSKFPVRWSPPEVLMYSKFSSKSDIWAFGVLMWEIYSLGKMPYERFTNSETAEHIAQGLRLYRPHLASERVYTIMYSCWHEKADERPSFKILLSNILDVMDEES

Intracellular concentration: Concentration of compound, AVE (MOLM-14 cells; 5 min): 0.0812 µM | intracellular amount, AVE (MOLM-14 cells; 5 min): 0.0325 nmol | Intracellular concentration: Concentration of compound (MOLM-14 cells; 5 min, single replicates): 0.0707 µM and 0.0946 µM and 0.0782 µM | Intracellular concentration: Concentration of compound, AVE (MOLM-14 cells; 15 min): 0.0738 µM | intracellular amount, AVE (MOLM-14 cells; 15 min): 0.0295 nmol | Intracellular concentration: Concentration of compound (MOLM-14 cells; 15 min, single replicates): 0.0714 µM and 0.0730 µM and 0.0769 µM | Intracellular concentration: Concentration of compound, AVE (MOLM-14 cells; 30 min): 0.0681 µM | intracellular amount, AVE (MOLM-14 cells; 30 min): 0.0272 nmol | Intracellular concentration: Concentration of compound (MOLM-14 cells; 30 min, single replicates): 0.0636 µM and 0.0688 µM and 0.0717 µM | Intracellular concentration: Concentration of compound, AVE (MOLM-14 cells; 60 min): 0.0458 µM | intracellular amount, AVE (MOLM-14 cells; 60 min): 0.0183 nmol | Intracellular concentration: Concentration of compound (MOLM-14 cells; 60 min, single replicates): 0.0457 µM and 0.0469 µM and 0.0450 µM | Intracellular concentration: Concentration of compound, AVE (MOLM-14 cells; 90 min): 0.0470 µM | intracellular amount, AVE (MOLM-14 cells; 90 min): 0.0188 nmol | Intracellular concentration: Concentration of compound (MOLM-14 cells; 90 min, single replicates): 0.0488 µM and 0.0453 µM and 0.0468 µM | Intracellular concentration: Concentration of compound, AVE (MOLM-14 cells; 120 min): 0.0445 µM | intracellular amount, AVE (MOLM-14 cells; 120 min): 0.0178 nmol | Intracellular concentration: Concentration of compound (MOLM-14 cells; 120 min, single replicates): 0.0414 µM and 0.0423 µM and 0.0498 µM | Intracellular concentration: Concentration of compound, AVE (MOLM-14 cells; 240 min): 0.0399 µM | intracellular amount, AVE (MOLM-14 cells; 240 min): 0.0160 nmol | Intracellular concentration: Concentration of compound (MOLM-14 cells; 240 min, single replicates): 0.0402 µM and 0.0408 µM and 0.0387 µM | Cellular concentration (MOLM-14 cells; 5 min, Mean): 0.0325 nmol/million cells | Cellular concentration (MOLM-14 cells; 15 min, Mean): 0.0295 nmol/million cells | Cellular concentration (MOLM-14 cells; 30 min, Mean): 0.0272 nmol/million cells | Cellular concentration (MOLM-14 cells; 60 min, Mean): 0.0183 nmol/million cells | Cellular concentration (MOLM-14 cells; 90 min, Mean): 0.0188 nmol/million cells | Cellular concentration (MOLM-14 cells; 120 min, Mean): 0.0178 nmol/million cells | BTK quantification (anti-BTK / anti-β-actin) (BTK; 8 nM): 97.1575 and 95.3789 | BTK quantification (anti-BTK / anti-β-actin) (BTK; 40 nM): 69.0679 and 73.2452 | BTK quantification (anti-BTK / anti-β-actin) (BTK; 200 nM): 33.5661 and 27.9942
SMILES: CN(CCCNC(=O)CNc1cccc2c1C(=O)N(C1CCC(=O)NC1=O)C2=O)CCCC(=O)N1CCCC(n2nc(-c3ccc(Oc4ccccc4)cc3)c3c(N)ncnc32)C1 (stereo not drawn) [RNC-1]
intracellular amount (MOLM-14 cells; 5 min, single replicates): 0.0283 nmol and 0.0378 nmol and 0.0313 nmol | intracellular amount (MOLM-14 cells; 15 min, single replicates): 0.0286 nmol and 0.0292 nmol and 0.0308 nmol | intracellular amount (MOLM-14 cells; 30 min, single replicates): 0.0255 nmol and 0.0275 nmol and 0.0287 nmol | intracellular amount (MOLM-14 cells; 60 min, single replicates): 0.0183 nmol and 0.0188 nmol and 0.0180 nmol | intracellular amount (MOLM-14 cells; 90 min, single replicates): 0.0195 nmol and 0.0181 nmol and 0.0187 nmol | intracellular amount (MOLM-14 cells; 120 min, single replicates): 0.0166 nmol and 0.0169 nmol and 0.0199 nmol | intracellular amount (MOLM-14 cells; 240 min, single replicates): 0.0161 nmol and 0.0163 nmol and 0.0155 nmol | Cellular concentration (MOLM-14 cells; 5 min, single replicates, MOLM-14, 200 nM): 0.0313 nmol/million cells and 0.0283 nmol/million cells and 0.0378 nmol/million cells | Cellular concentration (MOLM-14 cells; 15 min, single replicates, MOLM-14, 200 nM): 0.0308 nmol/million cells and 0.0286 nmol/million cells and 0.0292 nmol/million cells | Cellular concentration (MOLM-14 cells; 30 min, single replicates, MOLM-14, 200 nM): 0.0287 nmol/million cells and 0.0255 nmol/million cells and 0.0275 nmol/million cells | Cellular concentration (MOLM-14 cells; 60 min, single replicates, MOLM-14, 200 nM): 0.0180 nmol/million cells and 0.018 nmol/million cells and 0.0183 nmol/million cells and 0.0188 nmol/million cells | Cellular concentration (MOLM-14 cells; 90 min, single replicates, MOLM-14, 200 nM): 0.0187 nmol/million cells and 0.0195 nmol/million cells and 0.0181 nmol/million cells | Cellular concentration (MOLM-14 cells; 120 min, single replicates, MOLM-14, 200 nM): 0.0199 nmol/million cells and 0.0166 nmol/million cells and 0.0169 nmol/million cells | Cellular concentration (MOLM-14 cells; 240 min, Mean): 0.0160 nmol/million cells and 0.016 nmol/million cells | Cellular concentration (MOLM-14 cells; 240 min, single replicates, MOLM-14, 200 nM): 0.0155 nmol/million cells and 0.0161 nmol/million cells and 0.0163 nmol/million cells
